# According to patent US5442053A, “Salts and mixtures of hyaluronic acid with pharmaceutically active substances, pharmaceutical compositions containing the same and methods for administration of such compositions” (Fidia, S.p.A., priority 1983, dated 1995):
# Legend:
# staphylococcus aureus = experiment: Recovery from dry inflammation in rabbit eye, staphylococcus aureus; assay type: in vivo
# Procedure: (§1) Studies were carried out with hyaluronic acid salts of the antibiotics: streptomycin, erythromycin, neomycin and gentamicin. The salts utilized are the total salts in which all of the acid groups of hyaluronic acid are salified with a basic group of the antibiotic and prepared according to the procedures described hereinabove in Examples 1, 2, 4 and 5.
# (§2) For administration, preparations were utilized comprising solutions of the HY drug complex in distilled water, having concentrations suitable to the antibiotic content:
# (§3) The activity of the above HY salts was compared to that given by the same antibiotics dissolved in phosphate buffer and having the same concentrations of antibiotic. The activity of the two groups of products was measured on the basis of the time necessary to suppress a dry inflammation of the rabbit eye induced by a bacterial agent.
# (§4) More precisely, the dry inflammation was determined in both eyes of 24 rabbits by intraocular injection of the titered suspension of one of the following bacterial groups: pseudomonas aeruginosa, staphylococcus aureus, salmonella typhi (0.1 ml). The various saline derivatives of the antibiotics were administered (3 drops every 6 hours) into the right eye (RE) of the rabbits, while into the left eye (LE) were instilled the corresponding quantities of the antibiotics dissolved in phosphate buffer. The treatment was begun immediately after injectin of the bacterial suspension and was continued until inflammation disappeared.
# (§5) In particular the following were examined: the state of the conjuntiva and the corneal epithelium, anterior chamber (presence of the Tyndall effect), the state of the iris of the posterior segment of the eye. The state of the back of the eye was examined with a Goldman lens. The presence of signs of inflammation (hyperemia, exudates, cloudiness of the liquids etc.) was registered.
# [1] = system: Bacillus subtillis ATCC 6633; experiment: Antimicrobial activity of streptomycin sulphate vehicled in hyaluronic acid, agar diffusion; assay type: cell-based, Bacillus subtilis
# Procedure: A solution of the two components (60 g hyaluronic acid sodium salt and 40 g streptomycin sulphate) was prepared and then freeze-dried.
# The antimicrobial activity of the formulation of streptomycin in hyaluronic acid sodium salt, HYALASTINE fraction, was controlled by microbial assay by agar diffusion, based on the reading after a suitable period of incubation at 32° C., and on a comparison of the diameters of the microorganism's inhibition zones (Bacillus subtillis ATCC 6633) determined on the presumed concentrations of the antibiotic under examination and on the corresponding and known concentrations of the working standard.
# After 18 hours of incubation of the assay plate at 32° C., it was observed that streptomycin vehicled in
# The results (Table 11) were obtained by measuring the diameter of microbial inhibition zones at working concentrations of 20 and 5 UI/ml, and expressed in units of antimicrobial activity per miligram of the mixture compared to streptomycin sulphate.
# pseudomonas aeruginosa = experiment: Recovery from dry inflammation in rabbit eye, pseudomonas aeruginosa; assay type: in vivo
# Procedure: as §1, §2, §3, §4, §5
# rabbit eye = experiment: Anti-inflammatory activity of triamcinolone vehicled in hyaluronic acid, dextran-induced intraocular inflammation; assay type: in vivo, rabbit (male New Zealand); settings: for Evaluated Score, Conjunctiva / Evaluated Score, Cornea / Evaluated Score, Iris / Evaluated Score, Tyndall: score 0 to 3
# Procedure: The experiments were carried out on male New Zealand rabbits (average weight 1.6 kg). After an adaption period of 5 days, introocular inflammation was induced in the rabbits by intraocular injection of dextran (10%, 0.1 ml). The administration was effected in both eyes under local anaesthetic with 4% Novesina, inserting the needle of the syringe at the edge of the cornea in the anterior chamber at a distance of 2 mm. The test was conducted on 10 animals.
# Treatment was effected in each animal both in the right and left eyes, by instillation of 3 drops 3 times a day for 6 days in all, of the following:
# a solution of triamcinolone (10% in saline) in the left eye (LE);
# a solution of hyaluronic acid sodium salt, HYALECTIN fraction, (10 mg/ml)+triamcinolone phosphate (10%) in the right eye (RE).
# The anti-inflammatory effect on the reaction induced by dextran was evaluated by observing the eye with a slit lamp at the following intervals: 0, 1 hr, 3 hr, 24 hr, 48 hr, 3 days, 4 days, 5 days and 6 days.
# At the intervals, the eye examination evaluated the following observations:
# the state of the cornea and conjunctiva for the possible presence of hypermia, edema, and especially observation of the iris which is normally sensitive to inflammatory processes after injection of inflammatory agents into the anterior chamber;
# the Tyndall effect, in which the presence of opacity of varying intensity ("nubecula") is indicative of the presence of corpuscular (inflammatory) elements in the anterior chamber.
# The result of the observation was expressed in terms of subjective scoring (from 0 to 3) related to the gradualness of the effect noted.
# salmonella typhi = experiment: Recovery from dry inflammation in rabbit eye, salmonella typhi; assay type: in vivo
# Procedure: as §1, §2, §3, §4, §5
# [2] = day 1, pseudomonas aeruginosa, 3 drops every 6 hours, 6 eyes
compound,measurement,setting,value
"CC[C@H]1OC(=O)[C@H](C)[C@@H](O[C@H]2C[C@@](C)(OC)[C@@H](O)[C@H](C)O2)[C@H](C)[C@@H](O[C@@H]2O[C@H](C)C[C@H](N(C)C)[C@H]2O)[C@](C)(O)C[C@@H](C)C(=O)[C@H](C)[C@@H](O)[C@]1(C)O [Erthromycin, erythromycin]",percentage of eyes which did not present any signs of inflammation,"staphylococcus aureus; day 1, staphylococcus aureus, 3 drops every 6 hours, 6 eyes",0.0%
same,percentage of eyes which did not present any signs of inflammation,"staphylococcus aureus; day 2, staphylococcus aureus",0.0%
same,percentage of eyes which did not present any signs of inflammation,"staphylococcus aureus; day 3, staphylococcus aureus",0.0%
same,percentage of eyes which did not present any signs of inflammation,"staphylococcus aureus; day 4, staphylococcus aureus",0.0%
same,percentage of eyes which did not present any signs of inflammation,"staphylococcus aureus; day 5, staphylococcus aureus",0.0%
same,percentage of eyes which did not present any signs of inflammation,"staphylococcus aureus; day 6, staphylococcus aureus",0.0%
same,percentage of eyes which did not present any signs of inflammation,"staphylococcus aureus; day 7, staphylococcus aureus",16.6%
same,percentage of eyes which did not present any signs of inflammation,"staphylococcus aureus; day 8, staphylococcus aureus",33.3%
"[H]/N=C(/N)N[C@H]1[C@H](O)[C@@H](O)[C@H](O[C@@H]2O[C@@H](C)[C@](O)(C=O)[C@H]2O[C@@H]2O[C@@H](CO)[C@H](O)[C@@H](O)[C@@H]2NC)[C@@H](N/C(N)=N\[H])[C@@H]1O [Streptomycin sulphate, streptomycin sulphate]","antimicrobial activity, Theoretical",[1],750 UI/MG
same,"antimicrobial activity, Effective","[1]; 18 hours, 32° C., 20 and 5 UI/ml",750 UI/MG
same,"antimicrobial activity, Effective (as streptomycin sulphate content)",[1]; values in parenthesis,1000 mg/gr
same,"antimicrobial activity, Theoretical (as streptomycin sulphate content)",[1]; values in parenthesis,1000 mg/gr
"[H]/N=C(/N)N[C@H]1[C@H](O)[C@@H](O)[C@H](O[C@@H]2O[C@@H](C)[C@](O)(C=O)[C@H]2O[C@@H]2O[C@@H](CO)[C@H](O)[C@@H](O)[C@@H]2NC)[C@@H](N/C(N)=N\[H])[C@@H]1O [Streptomycin, streptomycin]",percentage of eyes which did not present any signs of inflammation,pseudomonas aeruginosa; [2],0.0%
same,percentage of eyes which did not present any signs of inflammation,"pseudomonas aeruginosa; day 2, pseudomonas aeruginosa",0.0%
same,percentage of eyes which did not present any signs of inflammation,"pseudomonas aeruginosa; day 3, pseudomonas aeruginosa",0.0%
same,percentage of eyes which did not present any signs of inflammation,"pseudomonas aeruginosa; day 4, pseudomonas aeruginosa",0.0%
same,percentage of eyes which did not present any signs of inflammation,"pseudomonas aeruginosa; day 5, pseudomonas aeruginosa",0.0%
same,percentage of eyes which did not present any signs of inflammation,"pseudomonas aeruginosa; day 6, pseudomonas aeruginosa",16.6%
same,percentage of eyes which did not present any signs of inflammation,"pseudomonas aeruginosa; day 7, pseudomonas aeruginosa",50.0%
same,percentage of eyes which did not present any signs of inflammation,"pseudomonas aeruginosa; day 8, pseudomonas aeruginosa",100.0%
C[C@]12C=CC(=O)C=C1CC[C@H]1[C@@H]3C[C@@H](O)[C@](O)(C(=O)CO)[C@@]3(C)C[C@H](O)[C@@]12F [triamcinolone],"Evaluated Score, Conjunctiva",rabbit eye; 0,0.0
same,"Evaluated Score, Cornea",rabbit eye; 0,0.0
same,"Evaluated Score, Iris",rabbit eye; 0,0.0
same,"Evaluated Score, Tyndall",rabbit eye; 0,0.0
same,"Evaluated Score, Conjunctiva",rabbit eye; 1 hour,0.2
same,"Evaluated Score, Cornea",rabbit eye; 1 hour,1.0
same,"Evaluated Score, Iris",rabbit eye; 1 hour,0.5
same,"Evaluated Score, Tyndall",rabbit eye; 1 hour,1.0
same,"Evaluated Score, Conjunctiva",rabbit eye; 3 hours,0.0
same,"Evaluated Score, Cornea",rabbit eye; 3 hours,0.0
same,"Evaluated Score, Iris",rabbit eye; 3 hours,2.7
same,"Evaluated Score, Tyndall",rabbit eye; 3 hours,3.0
same,"Evaluated Score, Conjunctiva",rabbit eye; 24 hours,0.0
same,"Evaluated Score, Cornea",rabbit eye; 24 hours,0.1
same,"Evaluated Score, Iris",rabbit eye; 24 hours,3.0
same,"Evaluated Score, Tyndall",rabbit eye; 24 hours,3.0
same,"Evaluated Score, Conjunctiva",rabbit eye; 48 hours,0.0
same,"Evaluated Score, Cornea",rabbit eye; 48 hours,0.0
same,"Evaluated Score, Iris",rabbit eye; 48 hours,3.0
same,"Evaluated Score, Tyndall",rabbit eye; 48 hours,3.0
same,"Evaluated Score, Conjunctiva",rabbit eye; 3 days,0.0
same,"Evaluated Score, Cornea",rabbit eye; 3 days,0.0
same,"Evaluated Score, Iris",rabbit eye; 3 days,3.0
same,"Evaluated Score, Tyndall",rabbit eye; 3 days,3.0
same,"Evaluated Score, Conjunctiva",rabbit eye; 4 days,0.0
same,"Evaluated Score, Cornea",rabbit eye; 4 days,0.0
same,"Evaluated Score, Iris",rabbit eye; 4 days,2.4
same,"Evaluated Score, Tyndall",rabbit eye; 4 days,2.2
same,"Evaluated Score, Conjunctiva",rabbit eye; 5 days,0.0
same,"Evaluated Score, Cornea",rabbit eye; 5 days,0.0
same,"Evaluated Score, Iris",rabbit eye; 5 days,1.5
same,"Evaluated Score, Tyndall",rabbit eye; 5 days,1.2
same,"Evaluated Score, Conjunctiva",rabbit eye; 6 days,0.0
same,"Evaluated Score, Cornea",rabbit eye; 6 days,0.0
same,"Evaluated Score, Iris",rabbit eye; 6 days,0.5
same,"Evaluated Score, Tyndall",rabbit eye; 6 days,0.4
same,anti-inflammatory effect (in words),rabbit eye; dextran-induced intraocular inflammation,"almost normal conditions are restored, with perfect limpidness of the eye by the 6th day"
gentamicin [Gentamycin],percentage of eyes which did not present any signs of inflammation,pseudomonas aeruginosa; [2],0.0%
same,percentage of eyes which did not present any signs of inflammation,"pseudomonas aeruginosa; day 2, pseudomonas aeruginosa",0.0%
same,percentage of eyes which did not present any signs of inflammation,"pseudomonas aeruginosa; day 3, pseudomonas aeruginosa",0.0%
same,percentage of eyes which did not present any signs of inflammation,"pseudomonas aeruginosa; day 4, pseudomonas aeruginosa",0.0%
same,percentage of eyes which did not present any signs of inflammation,"pseudomonas aeruginosa; day 5, pseudomonas aeruginosa",0.0%
same,percentage of eyes which did not present any signs of inflammation,"pseudomonas aeruginosa; day 6, pseudomonas aeruginosa",33.3%
same,percentage of eyes which did not present any signs of inflammation,"pseudomonas aeruginosa; day 7, pseudomonas aeruginosa",50.0%
same,percentage of eyes which did not present any signs of inflammation,"pseudomonas aeruginosa; day 8, pseudomonas aeruginosa",100.0%
neomycin,percentage of eyes which did not present any signs of inflammation,"salmonella typhi; day 1, salmonella typhi, 3 drops every 6 hours, 6 eyes",0.0%
same,percentage of eyes which did not present any signs of inflammation,"salmonella typhi; day 2, salmonella typhi",0.0%
same,percentage of eyes which did not present any signs of inflammation,"salmonella typhi; day 3, salmonella typhi",0.0%
same,percentage of eyes which did not present any signs of inflammation,"salmonella typhi; day 4, salmonella typhi",0.0%
same,percentage of eyes which did not present any signs of inflammation,"salmonella typhi; day 5, salmonella typhi",0.0%
same,percentage of eyes which did not present any signs of inflammation,"salmonella typhi; day 6, salmonella typhi",0.0%
same,percentage of eyes which did not present any signs of inflammation,"salmonella typhi; day 7, salmonella typhi",16.6%
same,percentage of eyes which did not present any signs of inflammation,"salmonella typhi; day 8, salmonella typhi",33.3%
